“And” between values parts separate entries of the source, which are not always exact repeats. Equal entries are not always repeated. Where two headings read alike, the source gives them in different places.
How the values were obtained:
[1] = In vivo pharmacokinetics study in rats, intravenous and oral administration; parameters: species or system male Sprague Dawley rats
Description: The compounds of the present invention were formulated as a solution in a 30:70 (PEG 400:acidified H2O) vehicle. This solution was administered orally (p.o.) at 10 mg/kg and intravenously (i.v.) at 2.5 mg/kg to two distinct groups (n=3) of male Sprague Dawley rats (body weight of 220-250 g). The animals used in the oral dosing group were fasted for 12 hrs before the drug administration. The blood samples were collected via retro-orbital puncture at 0 hour (pre-dose), 0.083, 0.25, 0.5, 1, 2, 4, 6, 8, and 24 hours post-dose. The blood plasma was isolated and HPLC was performed to determine the concentration of the test compounds in blood plasma. Standard set of pharmacokinetic parameters including Area Under the Curves (AUC's), elimination half-lives and bioavailabilities etc. were calculated using FDA certified pharmacokinetic program WinNonlin Professional v5.2 (Pharsight, USA).
The bioavailability was calculated as F (%)=(Doseiv×AUCoral(0-∞))/(Doseoral×AUCiv(0-∞))100%. The plasma concentration-time curve of example 5 in male rats following intravenous and oral administration was shown in FIG. 1. Selected pharmacokinetics parameters of example 5 in male rats following intravenous and oral administration were listed in Table 2.

[2] = system: U87MG glioblastoma tumor xenograft; details: for tumor growth inhibition: Day 12, vs vehicle-treated controls
Description: The U87MG glioblastoma cell line (obtained from Institute of Biochemistry and Cell Biology, Shanghai Institutes for Biological Sciences) expresses the c-Met receptor and responds to […] (HGF). […] The study utilized a tumor growth inhibition (TGI) assay to test per os (p.o.) compound monotherapy in groups of eight nude mice. A control group was treated with a 30:70 (PEG 400:acidified H2O) vehicle. All treatments began on Day 1 (D1) in mice bearing established subcutaneous (s.c.) U87MG tumors.
Female athymic nude mice (BALB/cA, Shanghai Laboratories Animal Center, Shanghai, China) were 7-8 weeks old with a body weight range of 19-21 g at the beginning of the study. Food and water were available ad libitum throughout the study. Mice were housed in SPF (Specific Pathogen Free) area of Medicilon/MPI animal facility. Environmental control for the animal room was set to maintain a temperature of 18-25° C., humidity of 30-70%, and a 12-hour light/12-hour dark cycle. Animals had previously been acclimated to study procedures prior to initial dose administration. Animals to be used on test were selected based on overall health and acclimation to caging.
U-87 MG human glioblastoma cells were purchased from Institute of Biochemistry and Cell Biology, Shanghai Institutes for Biological Sciences. The cells were maintained in vitro Eagle's Minimum Essential Medium supplemented with 10% heat inactivated fetal calf serum. Cells were cultured at 37° C. in an atmosphere of 5% CO2 in air and routinely sub-cultured twice weekly by trypsin-EDTA treatment. Cells in an exponential growth phase were harvested and counted for tumor inoculation. Each test mouse was subcutaneously inoculated with 1×10^7 U87-MG tumor cells in 0.1 ml medium at the right flank of the mouse for tumor model development. During the experiment, the implanted tumors were measured by external caliper every other day in a blind fashion. Nine days later, on Day 1 of the study, mice with well-established tumors (about 150 mm^3) were randomly assigned into 4 groups (n=8 mice/group). Tumor volume was calculated using the formula: Tumor Volume=w^2×l/2 where w=width and l=length in mm of the tumor. Tumor weight may be estimated with the assumption that 1 mg is equivalent to 1 mm^3 of tumor volume.
In all groups, the dosing volume of 0.2 mL/20 g mouse was scaled to the body weight of each animal
The MTV (n) is defined as the median tumor volume (MTV) for the number of animals, n, remaining in the study on that day. The Median Tumor Growth Volume=Median Tumor Volume−Median Tumor Volumeinitial.
Tumor growth was plotted as the median tumor volume, versus time, for each group in the study. The differences in the tumor size between the treatment groups and the vehicle group are analyzed for significance using the unpaired two-tailed Student's t-test. P<0.05 is considered to be statistically significant.

[3] = male rats, IV 2.5 mg/kg, individual animals R 1-R 3
[4] = male rats, PO 10 mg/kg, fasted, individual animals R 4-R 6
[5] = male, Sprague Dawley, rat, plasma, iv, 2.5 mg/kg, IV 2.5 mg/kg, individual animals R 1-R 3
[6] = male, Sprague Dawley, rat, plasma, iv, 2.5 mg/kg, IV 2.5 mg/kg, mean (n=3)
[7] = male, Sprague Dawley, rat, plasma, po, 10 mg/kg, PO 10 mg/kg, fasted, individual animals R 4-R 6
[8] = male, Sprague Dawley, rat, plasma, po, 10 mg/kg, PO 10 mg/kg, fasted, mean (n=3)

OCCn1cc(-c2ncc3nnn(Cc4ccc5ncccc5c4)c3n2)cn1 [Example 5, 2-(4-(3-(Quinolin-6-ylmethyl)-3H-[1,2,3]triazolo[4,5-d]pyrimidin-5-yl)-1H-pyrazol-1-yl)ethanol]
Tmax ([1]; Sprague Dawley, rat, plasma, male rats, IV 2.5 mg/kg, individual animals R 1-R 3): 0.08 h | Tmax ([1]; Sprague Dawley, rat, plasma, male rats, PO 10 mg/kg, fasted, individual animals R 4-R 6): 2 h | AUC(0-t) [1, 3]: 5.47246 µg·h/mL and 3.45175 µg·h/mL and 7.27477 µg·h/mL | AUC(0-∞) [1, 3]: 3.74158 µg·h/mL and 7.31008 µg·h/mL | Cmax [1, 3]: 2.41788 µg/mL and 3.01957 µg/mL | t1/2 [1, 3]: 2.59 h and 3.23 h | F % (bioavailability) ([1]; male rats, PO 10 mg/kg vs IV 2.5 mg/kg, individual animals R 4-R 6): 70.36% and 72.63% | AUC(0-t) [1, 4]: 15.4542 µg·h/mL and 15.95484 µg·h/mL | AUC(0-∞) [1, 4]: 15.50949 µg·h/mL and 16.01005 µg·h/mL | Cmax [1, 4]: 1.50563 µg/mL and 2.29965 µg/mL | t1/2 [1, 4]: 2.82 h and 2.98 h | AUC(0-inf) [1, 5]: 5.48 µg·h/mL | half-life [1, 5]: 2.62 h | Cmax ([1]; male, Sprague Dawley, rat, plasma, iv, 2.5 mg/kg, IV 2.5 mg/kg, individual animals R 1-R 3, read-out: Cmax): 2.7 µg/mL | AUC(0-inf) [1, 6]: 5.51 µg·h/mL | half-life [1, 6]: 2.81 h | AUC(0-t) ([1]; male, Sprague Dawley, rat, plasma, iv, 2.5 mg/kg, IV 2.5 mg/kg, mean (n=3), read-out: AUC(0-t)): 5.4 µg·h/mL | Cmax ([1]; male, Sprague Dawley, rat, plasma, iv, 2.5 mg/kg, IV 2.5 mg/kg, mean (n=3), read-out: Cmax): 2.71 µg/mL | bioavailability ([1]; male, Sprague Dawley, rat, plasma, po, 10 mg/kg, PO 10 mg/kg vs IV 2.5 mg/kg, individual animals R 4-R 6, read-out: F % (bioavailability)): 79.4% | bioavailability ([1]; male, Sprague Dawley, rat, plasma, po, 10 mg/kg, PO 10 mg/kg vs IV 2.5 mg/kg, mean (n=3), read-out: F % (bioavailability)): 74.1% | AUC(0-inf) [1, 7]: 17.5 µg·h/mL | half-life [1, 7]: 2.88 h | AUC(0-t) ([1]; male, Sprague Dawley, rat, plasma, po, 10 mg/kg, PO 10 mg/kg, fasted, individual animals R 4-R 6, read-out: AUC(0-t)): 17.4 µg·h/mL | Cmax ([1]; male, Sprague Dawley, rat, plasma, po, 10 mg/kg, PO 10 mg/kg, fasted, individual animals R 4-R 6, read-out: Cmax): 2.54 µg/mL | AUC(0-inf) [1, 8]: 16.3 µg·h/mL | half-life [1, 8]: 2.89 h | AUC(0-t) ([1]; male, Sprague Dawley, rat, plasma, po, 10 mg/kg, PO 10 mg/kg, fasted, mean (n=3), read-out: AUC(0-t)): 16.3 µg·h/mL | Cmax ([1]; male, Sprague Dawley, rat, plasma, po, 10 mg/kg, PO 10 mg/kg, fasted, mean (n=3), read-out: Cmax): 2.11 µg/mL | tumor growth inhibition ([2]; 10 mg/kg p.o. once a day (q.d.)): 58% | tumor growth inhibition ([2]; 30 mg/kg p.o. twice a day (b.i.d.)): 70% | significance of tumor growth inhibition ([2]; 40 mg/kg (q.d.) and 30 mg/kg (b.i.d.), from Day 4, p<0.05): statistically significant tumor growth inhibition | tumor growth inhibition ([2]; 40 mg/kg p.o. once a day (q.d.)): 66% | significance of tumor growth inhibition ([2]; all doses (10, 40 mg/kg q.d., 30 mg/kg b.i.d.), from Day 6, p<0.05): statistically significant tumor growth inhibition

Reference: patent US8598184B2, “Protein kinase inhibitors” (Tiger Pharmatech, priority 2008, dated 2013)
